Values belong to the compound of their own block, whether it stands above or below them.
Tested on: 186277-243-T-J2-PDC complex spheroid viability
Assay: Anticancer human tumor 186277-243-T-J2-PDC patient-derived colon adenocarcinoma cell line growth inhibition [GQUAD]
Details: for IC50: curve of first compound; for viability, T/C: stronger effect = lower value
Text: DNA G-quadruplex Stabilizer Agents in Combinations in Complex Spheroids
A high-throughput screen of multi-cell type tumor spheroids was designed to identify active combinations of DNA G-quadruplex stabilizer agents and targeted small molecules. Complex spheroids include a stromal component modeled by human endothelial cells (HUVEC) and fibroblasts modeled by human mesenchymal stem cells (MSCs). The concentration ranges selected for each drug and investigational agent were based upon clinically achievable concentrations if the clinical Cmax of the agent was known.
Compounds. The drugs and investigational agents: pidnarulex (CX-5461; NSC782164), APTO-253 (NSC789042), BRACO-19 (NSC847499), peposertib (NSC802822), ceralasertib (NSC780249), elimusertib (NSC800525), camonsertib (NSC841442), AZD-1390 (NSC803789), olaparib (NSC753686), talazoparib (NSC767125), ART-558 (NSC835418), sotorasib (NSC818433), MRTX-1133 (NSC836407), SN-38 (NSC673596), topotecan (NSC609699), etoposide (NSC141540), doxorubicin (NSC123127), gemcitabine (NSC613327), 5-fluorouracil (NSC19893), paclitaxel (NSC125973), vemurafenib (NSC761431), panobinostat (NSC761190), R-306465 (JNJ-16241199; NSC773264), adavosertib (NSC754352), TP-3654 (NSC805149), carboplatin (NSC241240), KSQ-4279 (NSC840948), and staurosporine (NSC755774) were obtained from the National Cancer Institute (NCI) Developmental Therapeutics Program Chemical Repository (34). The FDA-approved anticancer drug set is available from the NCI Developmental Therapeutics Program. […] The stock solutions were prepared in dimethyl sulfoxide (DMSO, Sigma-Aldrich, St. Louis, MO, cat. D2650) at 800-fold the tested concentration and stored at -70 degrees C prior to their use. All drugs and investigational agents were tested over a range starting from a high concentration at or near the clinical Cmax and decreasing in half-log increments. If the clinical Cmax for an agent had not been determined, the highest concentration tested was 10 microM.
2.3 Cell Culture. All cells were maintained in an incubator at 37 degrees C and 5% CO2 with 95% humidity. The PDC lines were cultured according to standard operating procedures established by the NCI PDMR. All PDCs were thawed and cultured in Matrigel-coated flasks prepared with a working solution of 1X Ham's F-12 nutrient mix, without supplementation (Invitrogen, cat. 11765054), 100 U/mL penicillin-streptomycin (Invitrogen, cat. 15140122), and 2.5% Matrigel (Corning Inc., cat. 354248) for the first three passages. The 857933-349-R-J2-PDC line was cultured in 6C/Colon 1B media, which includes advanced DMEM/F-12 (Thermo Fisher Scientific, cat. 12634028), 10 mM HEPES (Thermo Fisher Scientific, cat. 15630080), 1X GlutaMAX supplement (Thermo Fisher Scientific, cat. 35050061), 0.1 mg/mL primocin (InvivoGen, cat. ant-pm-2), 10% defined fetal bovine serum, heat inactivated (HyClone Laboratories Inc., cat. SH30070.03HI), 50% L-WRN conditioned media (ATCC, cat. CRL-3276), 1.25 mM N-Acetyl-L-cysteine (Sigma-Aldrich, cat. A9165), 10 mM nicotinamide (Sigma-Aldrich, cat. N0636), 1X B-27 supplement (Thermo Fisher Scientific, cat. 17504044), 1X N-2 supplement (Thermo Fisher Scientific, cat. 17502048), 10 microM Y-27632 dihydrochloride (Tocris Bioscience, cat. 1254), and 50 ng/mL human EGF recombinant protein (Thermo Fisher Scientific, cat. PHG0311). The 485176-168-R4-J1-PDC line was cultured in Panc media, which includes all 6C/Colon 1B media components plus 100 ng/mL human FGF-10 (Thermo Fisher Scientific, cat. 100-26), 500 nM SB-431542 (Selleckchem, cat. S1067), and gastrin (Tocris, cat. 3006).
[…]

[1] = second compound 0.0316 µM, first compound 0.0316 µM
[2] = second compound 0.0316 µM, first compound 0.1 µM
[3] = second compound 0.0316 µM, first compound 0.316 µM
[4] = second compound 0.0316 µM, first compound 1 µM
[5] = second compound 0.0316 µM, first compound 3.16 µM
[6] = second compound 0.0316 µM, first compound 10 µM
[7] = second compound 0.1 µM, first compound 0.0316 µM
[8] = second compound 0.1 µM, first compound 0.1 µM
[9] = second compound 0.1 µM, first compound 0.316 µM
[10] = second compound 0.1 µM, first compound 1 µM
[11] = second compound 0.1 µM, first compound 3.16 µM
[12] = second compound 0.1 µM, first compound 10 µM
[13] = second compound 0.316 µM, first compound 0.0316 µM
[14] = second compound 0.316 µM, first compound 0.1 µM
[15] = second compound 0.316 µM, first compound 0.316 µM
[16] = second compound 0.316 µM, first compound 1 µM
[17] = second compound 0.316 µM, first compound 3.16 µM
[18] = second compound 0.316 µM, first compound 10 µM
[19] = second compound 1 µM, first compound 0.0316 µM
[20] = second compound 1 µM, first compound 0.1 µM
[21] = second compound 1 µM, first compound 0.316 µM
[22] = second compound 1 µM, first compound 1 µM
[23] = second compound 1 µM, first compound 3.16 µM
[24] = second compound 1 µM, first compound 10 µM
[25] = second compound 3.16 µM, first compound 0.0316 µM
[26] = second compound 3.16 µM, first compound 0.1 µM
[27] = second compound 3.16 µM, first compound 0.316 µM
[28] = second compound 3.16 µM, first compound 1 µM
[29] = second compound 3.16 µM, first compound 3.16 µM
[30] = second compound 3.16 µM, first compound 10 µM
[31] = second compound 10 µM, first compound 0.0316 µM
[32] = second compound 10 µM, first compound 0.1 µM
[33] = second compound 10 µM, first compound 0.316 µM
[34] = second compound 10 µM, first compound 1 µM
[35] = second compound 10 µM, first compound 3.16 µM
[36] = second compound 10 µM, first compound 10 µM
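Further: spheroids exposed to drugs for 7 days.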
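Wherever viability, T/C is given: 100% = DMSO vehicle control viability.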

SMILES: Cc1cccc(N(C)C(=O)C2C(O)CCN2c2nc(C)cc(C(F)(F)F)c2C#N)c1 (centres undefined) + CN(C)c1ccc(Nc2c3ccc(NC(=O)CCN4CCCC4)cc3nc3cc(NC(=O)CCN4CCCC4)ccc23)cc1
- IC50 (second compound 0.0316 µM): > 10 µM
- IC50 (second compound 0.1 µM): > 10 µM
- IC50 (second compound 0.316 µM): > 10 µM
- IC50 (second compound 1 µM): > 10 µM
- IC50 (second compound 3.16 µM): > 10 µM
- IC50 (second compound 10 µM): > 10 µM
- viability, T/C [1]: 88.8%
- viability, T/C [2]: 99.5%
- viability, T/C [3]: 115%
- viability, T/C [4]: 109%
- viability, T/C [5]: 105%
- viability, T/C [6]: 100%
- viability, T/C [7]: 94.1%
- viability, T/C [8]: 105%
- viability, T/C [9]: 94.9%
- viability, T/C [10]: 91.8%
- viability, T/C [11]: 108%
- viability, T/C [12]: 88.7%
- viability, T/C [13]: 81%
- viability, T/C [14]: 107%
- viability, T/C [15]: 98.9%
- viability, T/C [16]: 97.6%
- viability, T/C [17]: 102%
- viability, T/C [18]: 104%
- viability, T/C [19]: 97.1%
- viability, T/C [20]: 93.2%
- viability, T/C [21]: 98.9%
- viability, T/C [22]: 101%
- viability, T/C [23]: 102%
- viability, T/C [24]: 114%
- viability, T/C [25]: 86.4%
- viability, T/C [26]: 91.7%
- viability, T/C [27]: 106%
- viability, T/C [28]: 118%
- viability, T/C [29]: 83%
- viability, T/C [30]: 110%
- viability, T/C [31]: 88.6%
- viability, T/C [32]: 104%
- viability, T/C [33]: 93.7%
- viability, T/C [34]: 120%
- viability, T/C [35]: 98.2%
- viability, T/C [36]: 75.6%

- IC50 (second compound 0.0316 µM): < 0.0316 µM
- IC50 (second compound 0.1 µM): < 0.0316 µM
- IC50 (second compound 0.316 µM): < 0.0316 µM
- IC50 (second compound 1 µM): < 0.0316 µM
- IC50 (second compound 3.16 µM): < 0.0316 µM
- IC50 (second compound 10 µM): < 0.0316 µM
SMILES: CC(=O)O[C@H]1C(=O)[C@@]2(C)[C@H]([C@H](OC(=O)c3ccccc3)[C@]3(O)C[C@H](OC(=O)[C@H](O)[C@@H](NC(=O)c4ccccc4)c4ccccc4)C(C)=C1C3(C)C)[C@]1(OC(C)=O)CO[C@@H]1C[C@@H]2O + Cc1cnc(CNC(=O)c2c(=O)c3ccc(N4CCCN(C)CC4)nc3n3c2sc2ccccc23)cn1
- viability, T/C [1]: 25.6%
- viability, T/C [2]: 11.8%
- viability, T/C [3]: 7.83%
- viability, T/C [4]: 7.31%
- viability, T/C [5]: 7.28%
- viability, T/C [6]: 7.34%
- viability, T/C [7]: 26.4%
- viability, T/C [8]: 18.3%
- viability, T/C [9]: 11.9%
- viability, T/C [10]: 11.9%
- viability, T/C [11]: 11%
- viability, T/C [12]: 10.4%
- viability, T/C [13]: 32.6%
- viability, T/C [14]: 18.1%
- viability, T/C [15]: 18.1%
- viability, T/C [16]: 20.5%
- viability, T/C [17]: 17%
- viability, T/C [18]: 16.6%
- viability, T/C [19]: 29.4%
- viability, T/C [20]: 29.9%
- viability, T/C [21]: 23.1%
- viability, T/C [22]: 25.1%
- viability, T/C [23]: 23.8%
- viability, T/C [24]: 21.5%
- viability, T/C [25]: 24.4%
- viability, T/C [26]: 27%
- viability, T/C [27]: 24%
- viability, T/C [28]: 23.5%
- viability, T/C [29]: 25.5%
- viability, T/C [30]: 22.3%
- viability, T/C [31]: 29.8%
- viability, T/C [32]: 25.5%
- viability, T/C [33]: 26.1%
- viability, T/C [34]: 25.2%
- viability, T/C [35]: 24.8%
- viability, T/C [36]: 23.7%

Reference: PubChem BioAssay AID2060512 (Molecular Pharmacology Branch, DTP, NCI, 2025)
